In brackets after ≈: the same amount, converted by molar mass.
Columns and labels:
[1] = Half life in Sprague-Dawley rat at 2 mg/kg, IG administered as single dose measured upto 24 hrs by LC-MS/MS analysis; type: ADME, organism-based; details: in vivo, po
[2] = Cmax in Sprague-Dawley rat at 4 mg/kg, IG administered as single dose measured upto 24 hrs by LC-MS/MS analysis; type: ADME, organism-based; design: dose 4 mg/kg, time < 24 hrs, route ig; details: in vivo, po
[3] = Tmax in Sprague-Dawley rat at 2 mg/kg, IG administered as single dose measured upto 24 hrs by LC-MS/MS analysis; type: ADME, organism-based; details: in vivo, po
[4] = Cmax in Sprague-Dawley rat at 2 mg/kg, IG administered as single dose measured upto 24 hrs by LC-MS/MS analysis; type: ADME, organism-based; design: dose 2 mg/kg, time < 24 hrs, route ig; details: in vivo, po
[5] = Half life in Sprague-Dawley rat at 4 mg/kg, IG administered as single dose measured upto 24 hrs by LC-MS/MS analysis; type: ADME, organism-based; details: in vivo, po
[6] = AUClast in Sprague-Dawley rat at 4 mg/kg, IG administered as single dose measured upto 24 hrs by LC-MS/MS analysis; type: ADME, organism-based; design: dose 4 mg/kg, time < 24 hrs, route ig; details: in vivo, po
[7] = MRTlast in Sprague-Dawley rat at 2 mg/kg, IG administered as single dose measured upto 24 hrs by LC-MS/MS analysis; type: ADME, organism-based; details: in vivo, po
[8] = MRTlast in Sprague-Dawley rat at 4 mg/kg, IG administered as single dose measured upto 24 hrs by LC-MS/MS analysis; type: ADME, organism-based; details: in vivo, po
[9] = Tmax in Sprague-Dawley rat at 4 mg/kg, IG administered as single dose measured upto 24 hrs by LC-MS/MS analysis; type: ADME, organism-based; details: in vivo, po
[10] = AUClast in Sprague-Dawley rat at 2 mg/kg, IG administered as single dose measured upto 24 hrs by LC-MS/MS analysis; type: ADME, organism-based; design: dose 2 mg/kg, time < 24 hrs, route ig; details: in vivo, po
Cytochrome P450 2C19 = Cytochrome P450 2C19 (Homo sapiens, UniProt P33261); experiment: Inhibition of CYP2C19 (unknown origin); type: ADME
Chain of Cytochrome P450 2C19 (P33261 whole entry): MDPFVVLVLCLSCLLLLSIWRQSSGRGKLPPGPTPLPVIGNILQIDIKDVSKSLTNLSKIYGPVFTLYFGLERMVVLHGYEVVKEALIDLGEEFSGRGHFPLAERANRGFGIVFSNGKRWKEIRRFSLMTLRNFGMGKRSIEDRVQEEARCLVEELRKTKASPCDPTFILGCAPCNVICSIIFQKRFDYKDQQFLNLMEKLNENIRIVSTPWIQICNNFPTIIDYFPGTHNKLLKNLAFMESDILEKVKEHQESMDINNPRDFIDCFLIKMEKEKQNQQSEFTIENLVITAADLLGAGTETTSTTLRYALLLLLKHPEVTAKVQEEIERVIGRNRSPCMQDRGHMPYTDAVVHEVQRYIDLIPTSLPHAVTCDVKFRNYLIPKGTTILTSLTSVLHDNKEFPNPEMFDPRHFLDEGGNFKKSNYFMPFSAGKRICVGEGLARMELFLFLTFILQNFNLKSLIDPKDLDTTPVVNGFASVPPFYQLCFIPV

[11] = Toxicity in Sprague-Dawley rat assessed as animal death at 20 to 60 mg/kg, po administered daily via gavage measured for 7 days; type: organism-based; details: in vivo, 168 h, dose 20-60 mg/kg, time 7 day
Cytochrome P450 3A4 = Cytochrome P450 3A4 (Homo sapiens, UniProt P08684); experiment: Inhibition of CYP3A4 (unknown origin); type: ADME
Chain of Cytochrome P450 3A4 (P08684 whole entry): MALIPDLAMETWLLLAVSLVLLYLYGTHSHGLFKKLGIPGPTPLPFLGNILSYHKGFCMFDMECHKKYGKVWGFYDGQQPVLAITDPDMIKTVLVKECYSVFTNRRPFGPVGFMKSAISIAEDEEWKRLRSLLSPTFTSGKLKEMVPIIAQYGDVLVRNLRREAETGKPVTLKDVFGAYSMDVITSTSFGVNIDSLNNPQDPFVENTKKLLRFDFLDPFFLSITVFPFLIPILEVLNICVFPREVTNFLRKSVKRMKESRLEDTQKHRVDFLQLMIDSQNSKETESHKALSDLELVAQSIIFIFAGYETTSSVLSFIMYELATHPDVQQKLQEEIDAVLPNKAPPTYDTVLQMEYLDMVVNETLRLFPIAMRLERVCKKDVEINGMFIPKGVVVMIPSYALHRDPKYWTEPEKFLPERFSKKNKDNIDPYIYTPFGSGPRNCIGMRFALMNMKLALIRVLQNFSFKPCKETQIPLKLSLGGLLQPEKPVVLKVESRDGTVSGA

[12] = Drug distribution in Sprague-Dawley rat brain at 6 micromol/kg administered via gavage measured after 6 hrs by LC-MS/MS analysis; type: ADME, tissue-based; details: in vivo, po, dose 6 µmol/kg
[13] = Genotoxicity in Salmonella typhimurium TA100 in presence of rat liver S9 fraction by Ames test; type: toxicity, subcellular; details: salmonella enterica subsp. enterica serovar typhimurium
[14] = Aqueous solubility of compound at pH 7.4; type: physicochemical
[15] = Metabolic stability in dog liver microsomes assessed as compound remaining at 100 uM […] followed by NADPH addition by LC/MS analysis; type: ADME, Canis lupus familiaris, Microsome; details: read-out: Stability
[16] = Genotoxicity in Salmonella typhimurium TA1535 in presence of rat liver S9 fraction by Ames test; type: toxicity, subcellular; details: salmonella enterica subsp. enterica serovar typhimurium
[17] = molecular target: T1, 5-hydroxytryptamine receptor 2A (Homo sapiens, UniProt P28223); experiment: Inverse agonist activity at 5-HT2A receptor (unknown origin) expressed in mouse NIH3T3 cells using o-nitrophenyl-D-galacto pyranoside incubated for 120 hrs; type: functional, cell-based
T1 sequence (P28223 whole entry): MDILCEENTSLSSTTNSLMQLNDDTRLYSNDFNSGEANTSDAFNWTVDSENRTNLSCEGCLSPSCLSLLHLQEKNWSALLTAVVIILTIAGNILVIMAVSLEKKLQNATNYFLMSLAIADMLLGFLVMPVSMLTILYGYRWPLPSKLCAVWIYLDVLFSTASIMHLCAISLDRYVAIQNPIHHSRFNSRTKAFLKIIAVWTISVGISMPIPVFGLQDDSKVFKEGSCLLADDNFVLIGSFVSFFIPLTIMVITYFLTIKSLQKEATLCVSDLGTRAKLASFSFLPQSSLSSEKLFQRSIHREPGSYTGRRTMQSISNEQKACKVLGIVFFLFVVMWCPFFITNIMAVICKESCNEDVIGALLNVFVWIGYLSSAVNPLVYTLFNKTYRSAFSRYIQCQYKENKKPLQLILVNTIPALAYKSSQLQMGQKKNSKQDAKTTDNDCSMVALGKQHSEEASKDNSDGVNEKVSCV

[18] = Genotoxicity in Salmonella typhimurium TA98 in presence of rat liver S9 fraction by Ames test; type: toxicity, subcellular; details: salmonella enterica subsp. enterica serovar typhimurium
[19] = Drug distribution in Sprague-Dawley rat brain at 6 micromol/kg administered via gavage measured after 2 hrs by LC-MS/MS analysis; type: ADME, tissue-based; details: in vivo, po, dose 6 µmol/kg
[20] = Genotoxicity in Salmonella typhimurium TA100 in absence of rat liver S9 fraction by Ames test; type: toxicity; details: salmonella enterica subsp. enterica serovar typhimurium
[21] = Genotoxicity in Salmonella typhimurium TA1535 in absence of rat liver S9 fraction by Ames test; type: toxicity; details: salmonella enterica subsp. enterica serovar typhimurium
[22] = Lipophilicity, logD of the compound at pH 7.4; type: physicochemical; details: buffer
[23] = molecular target: T2, 5-hydroxytryptamine receptor 2C (Homo sapiens, UniProt P28335); experiment: Displacement of [3H]- Mesulergine from human 5-HT2C receptor at 300 nM incubated for 1 hr by microbeta2 beta-counter analysis
T2 sequence (P28335 whole entry): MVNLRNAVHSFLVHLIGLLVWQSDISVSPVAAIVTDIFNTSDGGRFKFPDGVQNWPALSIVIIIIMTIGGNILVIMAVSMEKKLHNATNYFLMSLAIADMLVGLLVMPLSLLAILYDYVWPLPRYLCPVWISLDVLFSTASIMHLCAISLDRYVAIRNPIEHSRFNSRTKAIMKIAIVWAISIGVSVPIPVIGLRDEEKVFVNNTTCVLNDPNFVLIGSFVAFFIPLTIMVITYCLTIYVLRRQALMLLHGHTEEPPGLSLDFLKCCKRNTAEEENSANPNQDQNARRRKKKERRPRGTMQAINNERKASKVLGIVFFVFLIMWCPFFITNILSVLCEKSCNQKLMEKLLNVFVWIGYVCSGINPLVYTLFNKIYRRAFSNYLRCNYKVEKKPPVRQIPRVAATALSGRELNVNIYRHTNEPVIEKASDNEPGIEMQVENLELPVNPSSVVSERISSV

[24] = Genotoxicity in Salmonella typhimurium TA102 in absence of rat liver S9 fraction by Ames test; type: toxicity; details: salmonella enterica subsp. enterica serovar typhimurium
[25] = Genotoxicity in Salmonella typhimurium TA98 in absence of rat liver S9 fraction by Ames test; type: toxicity; details: salmonella enterica subsp. enterica serovar typhimurium
[26] = Dissociation constant, pKa of the compound; type: physicochemical
[27] = Genotoxicity in Salmonella typhimurium TA97 in absence of rat liver S9 fraction by Ames test; type: toxicity; details: salmonella enterica subsp. enterica serovar typhimurium
[28] = Metabolic stability in Sprague-Dawley rat liver microsomes assessed as half life at 100 uM preincubated for 10 mins followed by NADPH addition by LC/MS analysis; type: ADME, Microsome
[29] = Toxicity in Sprague-Dawley rat assessed as apparent adverse effect at 20 to 60 mg/kg, po administered daily via gavage measured for 7 days; type: organism-based; details: in vivo, 168 h, dose 20-60 mg/kg, time 7 day
[30] = Metabolic stability in human liver microsomes assessed as intrinsic clearance at 100 uM preincubated for 10 mins followed by NADPH addition by LC/MS analysis; type: ADME, Microsome; details: read-out: CLH
Cytochrome P450 2C9 = Cytochrome P450 2C9 (Homo sapiens, UniProt P11712); experiment: Inhibition of CYP2C9 (unknown origin); type: ADME
Chain of Cytochrome P450 2C9 (P11712 whole entry): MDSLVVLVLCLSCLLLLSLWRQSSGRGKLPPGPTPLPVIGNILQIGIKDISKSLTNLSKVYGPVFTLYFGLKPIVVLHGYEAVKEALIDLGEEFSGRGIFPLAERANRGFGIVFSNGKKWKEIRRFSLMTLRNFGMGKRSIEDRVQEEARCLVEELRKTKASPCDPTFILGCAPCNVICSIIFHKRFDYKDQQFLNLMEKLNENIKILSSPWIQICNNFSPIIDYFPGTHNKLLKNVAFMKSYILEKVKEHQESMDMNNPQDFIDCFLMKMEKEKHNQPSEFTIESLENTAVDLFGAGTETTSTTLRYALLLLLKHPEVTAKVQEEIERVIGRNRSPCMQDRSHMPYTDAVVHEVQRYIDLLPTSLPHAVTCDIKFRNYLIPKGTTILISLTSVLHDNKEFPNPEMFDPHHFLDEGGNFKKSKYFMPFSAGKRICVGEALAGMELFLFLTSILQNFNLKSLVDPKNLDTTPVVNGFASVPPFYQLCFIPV

[31] = molecular target: Voltage-gated inwardly rectifying potassium channel KCNH2 (Homo sapiens, UniProt Q12809); experiment: Inhibition of hERG potassium channel expressed in CHO cells at -80 mV holding potential by whole cell patch clamp assay; type: toxicity, cell-based
Chain of Voltage-gated inwardly rectifying potassium channel KCNH2 (Q12809 whole entry): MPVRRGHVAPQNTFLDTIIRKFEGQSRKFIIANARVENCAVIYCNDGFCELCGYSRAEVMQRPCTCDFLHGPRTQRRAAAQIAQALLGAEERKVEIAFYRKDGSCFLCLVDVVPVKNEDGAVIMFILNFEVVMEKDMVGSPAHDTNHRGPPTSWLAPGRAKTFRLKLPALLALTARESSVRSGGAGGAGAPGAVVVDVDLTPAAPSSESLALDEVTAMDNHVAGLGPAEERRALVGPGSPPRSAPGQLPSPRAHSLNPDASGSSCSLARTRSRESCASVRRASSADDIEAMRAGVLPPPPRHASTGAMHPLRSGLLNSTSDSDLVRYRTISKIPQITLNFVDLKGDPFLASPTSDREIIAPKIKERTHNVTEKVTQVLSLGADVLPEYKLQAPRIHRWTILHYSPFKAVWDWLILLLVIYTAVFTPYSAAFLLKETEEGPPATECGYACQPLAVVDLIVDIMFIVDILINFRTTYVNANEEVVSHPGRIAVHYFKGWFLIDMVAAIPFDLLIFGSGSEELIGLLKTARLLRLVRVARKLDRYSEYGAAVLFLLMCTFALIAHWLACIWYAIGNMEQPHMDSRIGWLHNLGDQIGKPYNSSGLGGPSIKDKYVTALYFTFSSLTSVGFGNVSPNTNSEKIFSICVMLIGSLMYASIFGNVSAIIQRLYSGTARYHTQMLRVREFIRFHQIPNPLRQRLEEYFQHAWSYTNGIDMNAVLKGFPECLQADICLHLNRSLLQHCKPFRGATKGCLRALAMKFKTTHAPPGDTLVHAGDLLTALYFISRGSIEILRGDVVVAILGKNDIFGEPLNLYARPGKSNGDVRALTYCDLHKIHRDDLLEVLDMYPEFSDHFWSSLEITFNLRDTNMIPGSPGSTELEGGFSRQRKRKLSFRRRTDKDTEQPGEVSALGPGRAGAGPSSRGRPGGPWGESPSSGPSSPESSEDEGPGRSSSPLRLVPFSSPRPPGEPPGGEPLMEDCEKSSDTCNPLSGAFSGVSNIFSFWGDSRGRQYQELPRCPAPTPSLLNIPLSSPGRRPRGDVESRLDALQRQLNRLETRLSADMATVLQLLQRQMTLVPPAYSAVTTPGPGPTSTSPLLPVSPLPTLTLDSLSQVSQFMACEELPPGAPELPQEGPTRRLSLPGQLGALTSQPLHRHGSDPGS

[32] = Genotoxicity in Salmonella typhimurium TA97 in presence of rat liver S9 fraction by Ames test; type: toxicity, subcellular; details: salmonella enterica subsp. enterica serovar typhimurium
Cytochrome P450 2D6 = Cytochrome P450 2D6 (Homo sapiens, UniProt P10635); experiment: Inhibition of CYP2D6 (unknown origin); type: ADME
Chain of Cytochrome P450 2D6 (P10635 whole entry): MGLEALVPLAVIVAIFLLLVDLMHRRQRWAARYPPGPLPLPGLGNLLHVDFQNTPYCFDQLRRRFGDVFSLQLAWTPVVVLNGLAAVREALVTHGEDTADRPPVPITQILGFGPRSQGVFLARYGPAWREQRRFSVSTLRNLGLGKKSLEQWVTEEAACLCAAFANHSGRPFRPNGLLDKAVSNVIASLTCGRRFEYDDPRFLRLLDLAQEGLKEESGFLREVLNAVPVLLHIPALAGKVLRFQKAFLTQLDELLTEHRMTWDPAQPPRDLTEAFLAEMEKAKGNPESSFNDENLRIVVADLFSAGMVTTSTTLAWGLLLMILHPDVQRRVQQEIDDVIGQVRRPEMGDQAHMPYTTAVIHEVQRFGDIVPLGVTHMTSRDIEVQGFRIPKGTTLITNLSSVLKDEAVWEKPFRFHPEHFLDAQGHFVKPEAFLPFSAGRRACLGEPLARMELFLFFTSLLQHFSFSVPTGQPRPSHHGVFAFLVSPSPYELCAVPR

[33] = Genotoxicity in Salmonella typhimurium TA102 in presence of rat liver S9 fraction by Ames test; type: toxicity, subcellular; details: salmonella enterica subsp. enterica serovar typhimurium
[34] = Metabolic stability in human liver microsomes assessed as compound remaining at 100 uM […] followed by NADPH addition by LC/MS analysis; type: ADME, Microsome; details: read-out: Stability
[35] = Metabolic stability in human liver microsomes assessed as half life at 100 uM preincubated for 10 mins followed by NADPH addition by LC/MS analysis; type: ADME, Microsome
[36] = Drug distribution in Sprague-Dawley rat brain at 6 micromol/kg administered via gavage measured after 0.5 hr by LC-MS/MS analysis; type: ADME, tissue-based; details: in vivo, po, dose 6 µmol/kg
[37] = molecular target: T1, 5-hydroxytryptamine receptor 2A; experiment: Displacement of [3H]-Ketanserin from human 5-HT2A receptor at 50 nM incubated for 1 hr by microbeta scintillation counter analysis
[38] = molecular target: 5-hydroxytryptamine receptor 2B (Homo sapiens, UniProt P41595); experiment: Displacement of [3H]-LSD from human 5-HT2B receptor at 25 uM incubated for 1 hr by microbeta2 beta-counter analysis
Chain of 5-hydroxytryptamine receptor 2B (P41595 whole entry): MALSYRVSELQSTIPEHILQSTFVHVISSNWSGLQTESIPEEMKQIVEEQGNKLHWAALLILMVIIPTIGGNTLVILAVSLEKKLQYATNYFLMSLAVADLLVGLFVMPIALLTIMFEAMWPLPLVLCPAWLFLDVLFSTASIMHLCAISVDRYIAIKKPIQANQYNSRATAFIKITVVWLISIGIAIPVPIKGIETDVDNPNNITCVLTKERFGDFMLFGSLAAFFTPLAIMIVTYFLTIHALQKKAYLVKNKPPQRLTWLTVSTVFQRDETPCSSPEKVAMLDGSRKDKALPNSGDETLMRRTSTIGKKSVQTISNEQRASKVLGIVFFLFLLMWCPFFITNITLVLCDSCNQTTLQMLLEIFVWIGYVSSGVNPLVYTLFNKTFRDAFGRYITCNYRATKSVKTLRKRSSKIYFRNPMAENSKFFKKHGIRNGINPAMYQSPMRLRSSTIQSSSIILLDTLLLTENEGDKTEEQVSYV

[39] = Metabolic stability in Sprague-Dawley rat liver microsomes assessed as compound remaining at 100 uM […] followed by NADPH addition by LC/MS analysis; type: ADME, Microsome; details: read-out: Stability
[40] = Plasma protein binding in rat at 10 uM; type: ADME, cell-free; details: read-out: PPB (converted)
[41] = Metabolic stability in Sprague-Dawley rat liver microsomes assessed as intrinsic clearance at 100 uM preincubated for 10 mins followed by NADPH addition by LC/MS analysis; type: ADME, Microsome; details: read-out: CLH
[42] = Plasma protein binding in monkey at 10 uM; type: ADME, cell-free, Macaca mulatta; details: rhesus monkey, read-out: PPB (converted)
[43] = Plasma protein binding in human at 10 uM; type: ADME, cell-free; details: read-out: PPB (converted)
Cytochrome P450 1A2 = molecular target: T3, Cytochrome P450 1A2 (Homo sapiens, UniProt P05177); experiment: Inhibition of CYP1A2 (unknown origin); type: ADME
T3 sequence (P05177 whole entry): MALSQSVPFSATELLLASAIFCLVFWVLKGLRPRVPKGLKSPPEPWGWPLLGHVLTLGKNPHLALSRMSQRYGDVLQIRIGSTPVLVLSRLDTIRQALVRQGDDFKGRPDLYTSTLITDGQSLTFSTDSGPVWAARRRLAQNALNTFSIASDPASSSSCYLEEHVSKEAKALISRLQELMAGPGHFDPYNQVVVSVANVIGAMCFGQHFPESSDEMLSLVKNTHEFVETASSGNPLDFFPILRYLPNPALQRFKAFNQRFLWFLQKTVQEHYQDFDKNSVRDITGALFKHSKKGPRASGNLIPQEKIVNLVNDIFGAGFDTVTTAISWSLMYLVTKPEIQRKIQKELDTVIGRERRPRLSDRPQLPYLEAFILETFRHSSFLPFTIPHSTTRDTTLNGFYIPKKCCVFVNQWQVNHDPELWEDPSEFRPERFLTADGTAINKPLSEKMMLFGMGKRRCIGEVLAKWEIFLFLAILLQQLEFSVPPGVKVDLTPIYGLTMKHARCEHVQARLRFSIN

SMILES: CN1CCC(N(Cc2ccc(F)cn2)C(=O)NCc2ccc(OCC(F)(F)F)cc2)CC1.O=C(O)C(O)C(O)C(=O)O
- half-life [1]: 4.72 h
- Cmax [2]: 174 nM
- Tmax [3]: 0.9 h
- Cmax [4]: 87.7 nM
- half-life [5]: 4.44 h
- AUC(0-t) at 24 h [6]: 1.22 µM·h
- MRT last at 24 h [7]: 6.3 h
- MRT last at 24 h [8]: 6.03 h
- Tmax [9]: 0.81 h
- AUC(0-t) at 24 h [10]: 0.683 µM·h

SMILES: CN1CCC(N(Cc2ccc(F)cn2)C(=O)NCc2ccc(OCC(F)(F)F)cc2)CC1
- IC50 (Cytochrome P450 2C19): 62900 nM
- Activity [11]: Non-Toxic
- IC50 (Cytochrome P450 3A4): > 100000 nM
- Ct [12]: 100 nmol/kg
- Activity [13]: Non-Toxic
- solubility [14]: 710 µg/mL (≈ 1560 µM)
- remaining at 100 µM [15]: 76.4%
- Activity [16]: Non-Toxic
- IC50 [17]: 2.1 nM
- Activity [18]: Non-Toxic
- Ct [19]: 164 nmol/kg
- Activity [20]: Non-Toxic
- Activity [21]: Non-Toxic
- logD [22]: 1.97
- Ki [23]: 2 nM
- Activity [24]: Non-Toxic
- Activity [25]: Non-Toxic
- pKa [26]: 8.51
- Activity [27]: Non-Toxic
- half-life at 100 µM [28]: 1.72 h
- Activity [29]: Non-Toxic
- CLint scaled at 100 µM [30]: < 6.7 mL/min/kg
- IC50 (Cytochrome P450 2C9): > 100000 nM
- IC50 [31]: 1100 nM
- Activity [32]: Non-Toxic
- IC50 (Cytochrome P450 2D6): > 100000 nM
- Activity [33]: Non-Toxic
- remaining at 100 µM [34]: 89.2%
- half-life at 100 µM [35]: > 3.1 h
- Ct [36]: 120 nmol/kg
- Ki [37]: 0.2 nM
- Ki [38]: 139 nM
- remaining at 100 µM [39]: 66.5%
- fraction unbound at 10 µM [40]: 0.418
- CLint scaled at 100 µM [41]: 34.1 mL/min/kg
- fraction unbound at 10 µM [42]: 0.383
- fraction unbound at 10 µM [43]: 0.309
- IC50 (Cytochrome P450 1A2): 8500 nM
